Results reported in publication PMC6759747.

Assay: on-resin side-chain-to-N-terminus lactamisation (lanthionine D-half alpha-COOH + N-terminal amine); PyAOP 5 eq, HOAt 5 eq, DIPEA 10 eq, after TBAF (Teoc/TMSE) and piperidine (Fmoc) removal; NovaSyn TGT low-loading resin
Settings: the molecule shown is the open-chain precursor, DMF, 60.0 °C

For `*OC(=O)[C@H](CCCCNC(=O)OC(C)(C)C)NC(=O)[C@H](CSC[C@@H](N)C(=O)O)NC(=O)CNC(=O)[C@@H]1CCCN1`, which ring closure, overall yield (13-membered ring, 3.1 h) is on record?
Its ring closure, overall yield is 7%.

For `*OC(=O)[C@@H](NC(=O)[C@H](CSC[C@@H](N)C(=O)O)NC(=O)CNC(=O)[C@@H](N)CC(C)C)[C@@H](C)OC(C)(C)C`, which ring closure, overall yield (13-membered ring, 3.1 h) is on record?
The ring closure, overall yield was 34%.

Which ring closure, overall yield (13-membered ring, 5.1 h) does the source give for `*OC(=O)[C@H](CCCCNC(=O)OC(C)(C)C)NC(=O)[C@H](CS[C@@H](C)[C@@H](N)C(=O)O)NC(=O)CNC(=O)[C@@H]1CCCN1` here?
Its ring closure, overall yield is 37%.

For `*OC(=O)[C@H](C)NC(=O)[C@H](CSC[C@@H](N)C(=O)O)NC(=O)[C@H](CC(C)C)NC(=O)[C@H](CSC(c1ccccc1)(c1ccccc1)c1ccccc1)NC(=O)[C@@H](N)[C@@H](C)CC`, which ring closure, overall yield (16-membered ring, 3.1 h) is on record?
Its ring closure, overall yield is 11%.

With `*OC(=O)[C@H](C)NC(=O)[C@H](CSC[C@@H](N)C(=O)O)NC(=O)[C@H](CC(C)C)NC(=O)[C@H](CSC(c1ccccc1)(c1ccccc1)c1ccccc1)NC(=O)[C@@H](N)CC(C)C` as the molecule, how does the ring closure, overall yield (16-membered ring, 3.1 h) read?
Its ring closure, overall yield is 15%.

Which ring closure, overall yield (16-membered ring, 3.1 h) does the source give for `*OC(=O)[C@H](C)NC(=O)[C@H](CSC[C@@H](N)C(=O)O)NC(=O)[C@H](CC(C)C)NC(=O)[C@H](C)NC(=O)[C@@H](N)CC(C)C` here?
Its ring closure, overall yield is 3%.

With `*OC(=O)[C@H](C)NC(=O)[C@H](CSC[C@@H](N)C(=O)O)NC(=O)[C@H](CC(C)C)NC(=O)[C@H](COC(C)(C)C)NC(=O)[C@@H](N)CC(C)C` as the molecule, how does the ring closure, overall yield (16-membered ring, 3.1 h) read?
Its ring closure, overall yield is 5%.
